Laboratory results reported in ChEMBL document CHEMBL1134079, “Synthesis and pharmacological evaluation of 2,5-cycloamino-5H-[1]benzopyrano[4,3-d]pyrimidines endowed with in vitro antiplatelet activity” (Bioorg Med Chem Lett, 2001).

How the values were obtained:
Assay type in all cases: functional
[1] = organism: Cavia porcellus; experiment: Evaluated for in vitro antiplatelet activity against guinea pig platelet rich plasma aggregated by arachidonic acid (AA)
[2] = organism: Cavia porcellus; experiment: Evaluated for in vitro antiplatelet activity against guinea pig platelet rich plasma aggregated by […] (ADP)
[3] = organism: Cavia porcellus; experiment: In vitro antiplatelet activity against guinea pig platelet rich plasma aggregated by collagen

Structure (SMILES)	IC50 ([1]; read-out: IC50)	IC50 [2]	IC50 [1]	IC50 [3]	IC50 ([3]; read-out: IC50)
CSc1ncc2c(n1)-c1ccccc1OC2N1CCCC1 (stereo not given)	85 µM	180 µM			
CC(=O)Oc1ccccc1C(=O)O [ASPIRIN]			61 µM	48 µM	
c1ccc2c(c1)OC(N1CCOCC1)c1cnc(N3CCCCC3)nc1-2 (stereo not given)	25 µM				60 µM
c1ccc2c(c1)OC(N1CCOCC1)c1cnc(N3CCOCC3)nc1-2 (stereo not given)	95 µM				60 µM
c1ccc2c(c1)OC(N1CCCCC1)c1cnc(N3CCOCC3)nc1-2 (stereo not given)					200 µM
c1ccc2c(c1)OC(N1CCCC1)c1cnc(N3CCOCC3)nc1-2 (stereo not given)	430 µM	250 µM			80 µM
c1ccc2c(c1)OC(N1CCOCC1)c1cnc(N3CCCC3)nc1-2 (stereo not given)	75 µM				50 µM
Nc1ncc2c(n1)-c1ccccc1OC2N1CCCC1 (stereo not given)	400 µM	750 µM			
c1ccc2c(c1)OC(N1CCCC1)c1cnc(N3CCCC3)nc1-2 (stereo not given)	80 µM	200 µM			170 µM
c1ccc2c(c1)OC(N1CCCCC1)c1cnc(N3CCCC3)nc1-2 (stereo not given)	90 µM				
